These results are taken from patent publication US20240059698A1 (Accutar Biotechnology Inc., priority 2022, published 2024).

The GI50 is the concentration at which growth is held to half of that of the control.

Experiment [1] relates to HCC827-SVD cells (human EGFR exon 20 insertion mutant D770_N771insSVD). Nature of the experiment: Cell growth inhibition (CellTiter-Glo), HCC827-SVD. The experiment is classed as cell-based. Particulars: 72 h, 3 days. How it is done:
(§1) Generation of HCC827-SVD, HCC827-ASV, and HCC827-YVMA cell lines. The HCC827-SVD cell line was generated by first transducing HCC827 cells (ATCC) with lentiviral particles expressing codon-optimized human EGFR exon 20 insertion mutant D770_N771insSVD, and then selecting under 5 µg/mL puromycin treatment for a week. The resulting cells were further transduced with lentiviral particles carrying EGFR sgRNA and CAS9 to knockout the endogenous alleles of EGER and then selected under 500 µg/mL hygromycin B treatment for two weeks. The limiting dilution approach was used to subsequently generate the single clone of the HCC827-SVD stable cell line. Endogenous EGFR knockout was confirmed by Sanger sequencing of cell genomic DNA, and expression of exogenous mutant EGFR was verified by Western blot analysis.
(§2) 2. Cell Growth Inhibition for HCC827, HCC827-SVD, HCC827-ASV, HCC827-YVMA, and A431.
(§3) HCC827(ATCC), HCC827-SVD, HCC827-ASV, and HCC827-YVMA cells were seeded in 96-well plates at 5000 cells/well in 90 μL of RPMI growth medium containing 10% FBS and 1% Penicillin Streptomycin. A431 (ATCC) cells were seeded in 96-well plates at 5000 cells/well in 90 μL of DMEM growth medium containing 10% FBS and 1% Penicillin Streptomycin. Cells were incubated at 37° C. overnight and then administered with 10 μL 10× test compounds prepared in the growth medium at various concentrations. After administration of the compounds, cells were incubated at 37° C. for 3 days. Before the CellTiter-Glo assay, the plates were equilibrated at room temperature for approximately 30 minutes. 100 ul of CellTiter-Glo reagent (Promega) was added to each well. The plates were then incubated at room temperature for 10 minutes and luminescence was recorded by the EnSight® multimode plate reader (PerkinElmer). Table 7 listed selected compounds in cellular growth assay.

Experiment [2] concerns HCC827-YVMA cells (human ERBB2 exon20 insertion mutant A775_G776ins YVMA). Nature of the experiment: Cell growth inhibition (CellTiter-Glo), HCC827-YVMA. The experiment is classed as cell-based. Particulars: 72 h, HCC827-YVMA cells, 3 days, CellTiter-Glo, read-out: Cell growth inhibition, GI50 (nM) HCC827-YVMA. As to the method: as §1
HCC827-ASV and HCC827-YVMA cell lines were generated in a similar approach as HCC827-SVD, except that HCC827 cells (ATCC) were first transduced with lentiviral particles expressing codon-optimized human EGFR exon 20 insertion mutant V769_D770insASV and human ERBB2 exon20 insertion mutant A775_G776ins YVMA, respectively.
as §2, §3

Where only a bound is given, the exact number is not on record here.

As for `C=CC(=O)N1CCC(c2c[nH]c3ncnc(Nc4ccc(Oc5ccnc(N6C[C@H]7CCC[C@H]7C6)c5)cc4F)c23)CC1` [Compound 63, 1-(4-(4-((2-fluoro-4-((2-((3aR,6aS)-hexahydrocyclopenta[c]pyrrol-2(1H)-yl)pyridin-4-yl)oxy)phenyl)amino)-7H-pyrrolo[2,3-d]pyrimidin-5-yl)piperidin-1-yl)prop-2-en-1-one], the GI50 in experiment [1] and in experiment [2] was 200 to 1000 nM in each case.
In the case of `C=CC(=O)N1CCC(c2c[nH]c3ncnc(Nc4ccc(Oc5ccnc(C6CCC6)c5)cc4F)c23)CC1` [Compound 51, 1-(4-(4-((4-((2-cycloButylpyridin-4-yl)oxy)-2-fluorophenyl)amino)-7H-pyrrolo[2,3-d]pyrimidin-5-yl)piperidin-1-yl)prop-2-en-1-one], the concentration for 50% growth inhibition (GI50) in experiment [1] and in experiment [2] was 200 to 1000 nM throughout.
With `C=CC(=O)N1CCC(c2c[nH]c3ncnc(Nc4ccc(OCc5nncs5)c(Cl)c4)c23)CC1` [Compound 52, 1-(4-(4-((4-((1,3,4-thiadiazol-2-yl)methoxy)-3-chlorophenyl)amino)-7H-pyrrolo[2,3-d]pyrimidin-5-yl)piperidin-1-yl)prop-2-en-1-one], the GI50 in experiment [1] and in experiment [2] was less than 50 nM in each case.
In the case of `C=CC(=O)N1CCC(c2c[nH]c3ncnc(Nc4ccc(Oc5ccnc6cc[nH]c56)c(Cl)c4)c23)CC1` [Compound 46, 1-(4-(4-((4-((1H-pyrrolo[3,2-b]pyridin-7-yl)oxy)-3-chlorophenyl)amino)-7H-pyrrolo[2,3-d]pyrimidin-5-yl)piperidin-1-yl)prop-2-en-1-one], the GI50 in experiment [1] and in experiment [2] was 50 to 200 nM each time.
Turning to `C=CC(=O)N1CCC(c2c[nH]c3ncnc(Nc4ccc(OCc5cncnc5)c(Cl)c4)c23)CC1` [Compound 77, 1-(4-(4-((3-chloro-4-(pyrimidin-5-ylmethoxy)phenyl)amino)-7H-pyrrolo[2,3-d]pyrimidin-5-yl)piperidin-1-yl)prop-2-en-1-one], the GI50 in experiment [1] and in experiment [2] was less than 50 nM in each case.
On to `C=CC(=O)N1CCC(c2c(-c3ccc(N4CCN(C)CC4)cc3)[nH]c3ncnc(Nc4ccc(OCc5ccccn5)c(Cl)c4)c23)CC1` [Compound 74, 1-(4-(4-((3-chloro-4-(pyridin-2-ylmethoxy)phenyl)amino)-6-(4-(4-methylpiperazin-1-yl)phenyl)-7H-pyrrolo[2,3-d]pyrimidin-5-yl)piperidin-1-yl)prop-2-en-1-one], for which the GI50 in experiment [1] and in experiment [2] was less than 50 nM throughout.
With `C=CC(=O)N1CCC(c2c[nH]c3ncnc(Nc4ccc(Oc5ccnc(Nc6ccncn6)c5)cc4F)c23)CC1` [Compound 83, 1-(4-(4-((2-fluoro-4-((2-(pyrimidin-4-ylamino)pyridin-4-yl)oxy)phenyl)amino)-7H-pyrrolo[2,3-d]pyrimidin-5-yl)piperidin-1-yl)prop-2-en-1-one], the results for the GI50 in experiment [1] and in experiment [2] were 200 to 1000 nM and 50 to 200 nM, respectively.
For `C=CC(=O)N1CCC(c2c[nH]c3ncnc(Nc4ccc(OCc5cncs5)c(Cl)c4)c23)CC1` [Compound 86, 1-(4-(4-((3-chloro-4-(thiazol-5-ylmethoxy)phenyl)amino)-7H-pyrrolo[2,3-d]pyrimidin-5-yl)piperidin-1-yl)prop-2-en-1-one], in that order: less than 50 nM and less than 50 nM.
In the case of `C=CC(=O)N1CCC(c2c[nH]c3ncnc(Nc4ccc(OCc5ccc6sccc6n5)c(Cl)c4)c23)CC1` [Compound 75, 1-(4-(4-((3-chloro-4-(thieno[3,2-b]pyridin-5-ylmethoxy)phenyl)amino)-7H-pyrrolo[2,3-d]pyrimidin-5-yl)piperidin-1-yl)prop-2-en-1-one], the GI50 in experiment [1] and in experiment [2] was less than 50 nM each time.
Consider `C=CC(=O)N1CCC(c2c[nH]c3ncnc(Nc4ccc(OCc5ccccn5)c(Br)c4)c23)CC1` [Compound 39, 1-(4-(4-((3-bromo-4-(pyridin-2-ylmethoxy)phenyl)amino)-7H-pyrrolo[2,3-d]pyrimidin-5-yl)piperidin-1-yl)prop-2-en-1-one], for which the GI50 in experiment [1] and in experiment [2] was less than 50 nM in each case.
With `C=CC(=O)N1CCC(c2c[nH]c3ncnc(Nc4ccc(Oc5ccnc(-c6cccc(F)c6)c5)cc4F)c23)CC1` [Compound 82, 1-(4-(4-((2-fluoro-4-((2-(3-fluorophenyl)pyridin-4-yl)oxy)phenyl)amino)-7H-pyrrolo[2,3-d]pyrimidin-5-yl)piperidin-1-yl)prop-2-en-1-one], the GI50 in experiment [1] is greater than 1000 nM; in experiment [2], 200 to 1000 nM.
For `C=CC(=O)N1CCC(c2c(C)[nH]c3ncnc(Nc4ccc(OCc5ccccn5)c(Cl)c4)c23)CC1` [Compound 76, 1-(4-(4-((3-chloro-4-(pyridin-2-ylmethoxy)phenyl)amino)-6-methyl-7H-pyrrolo[2,3-d]pyrimidin-5-yl)piperidin-1-yl)prop-2-en-1-one], in that order: less than 50 nM and less than 50 nM.
For `C=CC(=O)N1CCC(c2c[nH]c3ncnc(Nc4ccc(Oc5ccnc(C6CCOCC6)c5)cc4F)c23)CC1` [Compound 64, 1-(4-(4-((2-fluoro-4-((2-(tetrahydro-2H-pyran-4-yl)pyridin-4-yl)oxy)phenyl)amino)-7H-pyrrolo[2,3-d]pyrimidin-5-yl)piperidin-1-yl)prop-2-en-1-one], in that order: greater than 1000 nM and 200 to 1000 nM.
For `C=CC(=O)N1CCC(c2c[nH]c3ncnc(Nc4ccc(OCc5ccnc(N6CC7CC7C6)c5)cc4F)c23)CC1` (stereo not shown) [Compound 79, 1-(4-(4-((4-((2-(3-azabicyclo[3.1.0]hexan-3-yl)pyridin-4-yl)methoxy)-2-fluorophenyl)amino)-7H-pyrrolo[2,3-d]pyrimidin-5-yl)piperidin-1-yl)prop-2-en-1-one], in that order: 200 to 1000 nM and 200 to 1000 nM.
With `C=CC(=O)N1CCC(c2c[nH]c3ncnc(Nc4ccc(Oc5ccnc(Nc6cccnc6)c5)cc4F)c23)CC1` [Compound 65, 1-(4-(4-((2-fluoro-4-((2-(pyridin-3-ylamino)pyridin-4-yl)oxy)phenyl)amino)-7H-pyrrolo[2,3-d]pyrimidin-5-yl)piperidin-1-yl)prop-2-en-1-one], the GI50 in experiment [1] and in experiment [2] was 200 to 1000 nM in each case.
In the case of `C=CC(=O)N1CCC(c2c[nH]c3ncnc(Nc4ccc(OCc5cn(C(C)C)cn5)c(Cl)c4)c23)CC1` [Compound 85, 1-(4-(4-((3-chloro-4-((1-isopropyl-1H-imidazol-4-yl)methoxy)phenyl)amino)-7H-pyrrolo[2,3-d]pyrimidin-5-yl)piperidin-1-yl)prop-2-en-1-one], the GI50 in experiment [1] and in experiment [2] was 50 to 200 nM each time.
Turning to `C=CC(=O)N1CCC(c2c[nH]c3ncnc(Nc4ccc(OCc5ncccc5Cl)c(Cl)c4)c23)CC1` [Compound 35, 1-(4-(4-((3-chloro-4-((3-chloropyridin-2-yl)methoxy)phenyl)amino)-7H-pyrrolo[2,3-d]pyrimidin-5-yl)piperidin-1-yl)prop-2-en-1-one], the GI50 in experiment [1] and in experiment [2] was less than 50 nM throughout.
With `C=CC(=O)N1CCC(c2c[nH]c3ncnc(Nc4ccc(Oc5ccnc(-c6cccc(C(F)(F)F)c6)c5)cc4F)c23)CC1` [Compound 53, 1-(4-(4-((2-fluoro-4-((2-(3-(trifluoromethyl)phenyl)pyridin-4-yl)oxy)phenyl)amino)-7H-pyrrolo[2,3-d]pyrimidin-5-yl)piperidin-1-yl)prop-2-en-1-one], the GI50 in experiment [1] and in experiment [2] was 200 to 1000 nM throughout.
In the case of `C=CC(=O)N1CCC(c2c[nH]c3ncnc(Nc4ccc(Oc5ccnc(-n6cc(F)cn6)c5)cc4F)c23)CC1` [Compound 61, 1-(4-(4-((2-fluoro-4-((2-(4-fluoro-1H-pyrazol-1-yl)pyridin-4-yl)oxy)phenyl)amino)-7H-pyrrolo[2,3-d]pyrimidin-5-yl)piperidin-1-yl)prop-2-en-1-one], the GI50 is greater than 1000 nM in experiment [1] and 200 to 1000 nM in experiment [2].
For `C=CC(=O)N1CCC(c2c[nH]c3ncnc(Nc4ccc(Oc5ccnc(NCc6ccccn6)c5)cc4F)c23)CC1` [Compound 42, 1-(4-(4-((2-fluoro-4-((2-((pyridin-2-ylmethyl)amino)pyridin-4-yl)oxy)phenyl)amino)-7H-pyrrolo[2,3-d]pyrimidin-5-yl)piperidin-1-yl)prop-2-en-1-one], in that order: 200 to 1000 nM and 200 to 1000 nM.
